Values quoted from earlier work as cited in patent publication US7517540B2, “Cranberry seed oil extract and compositions containing components thereof” (priority 1999, dated 2009).

Columns and labels:
MDA-MB-435 = details: for Inhibition of proliferation, MDA-MB-435 (Table 5): alone, 1:1 or 1:1:1 combinations; for IC50, inhibition of proliferation of MDA-MB-435: MDA-MB-435 (estrogen receptor-negative), combinations with tamoxifen 1:1
MCF-7 = details: for Inhibition of proliferation, MCF-7 (Table 5): alone, 1:1 or 1:1:1 combinations; for IC50, inhibition of proliferation of MCF-7: MCF-7 (estrogen receptor-positive), combinations with tamoxifen 1:1
[1] = fed to hypercholesterolemic chicken

SMILES | Inhibition of proliferation, MDA-MB-435 (Table 5) (MDA-MB-435) | Inhibition of proliferation, MCF-7 (Table 5) (MCF-7) | IC50, inhibition of proliferation of MDA-MB-435 (MDA-MB-435) | IC50, inhibition of proliferation of MCF-7 (MCF-7) | Hypocholesterolemic potency compared [1]
COc1ccc(-c2cc(=O)c3c(OC)c(OC)c(OC)c(OC)c3o2)cc1 [Tangeretin only, Tangeretin] | 0.5 | 0.4 |  |  | 
Cc1c(C)c2c(c(C)c1O)CC[C@@](C)(CCC[C@H](C)CCC[C@H](C)CCCC(C)C)O2 [α-Tocopherol] |  |  | >1000 µg/mL | 125 ± 3 µg/mL | 
CC(C)=CCC/C(C)=C/CC/C(C)=C/CC[C@]1(C)CCc2c(C)c(O)c(C)c(C)c2O1 [α-Tocotrienol] |  |  | 90 ± 3 µg/mL | 6 ± 0.3 µg/mL | 
CC(C)=CCC/C(C)=C/CC/C(C)=C/CC[C@]1(C)CCc2cc(O)c(C)c(C)c2O1 [γ-Tocotrienol] | 30 | 2 | 30 ± 2 µg/mL | 2 ± 0.1 µg/mL | more potently hypocholesterolemic than α-tocopherol, TRF, or α-tocotrienol
CC(C)=CCC/C(C)=C/CC/C(C)=C/CC[C@]1(C)CCc2cc(O)cc(C)c2O1 [δ-Tocotrienol] |  |  | 90 ± 3 µg/mL | 2 ± 0.05 µg/mL | more potently hypocholesterolemic than α-tocopherol, TRF, or α-tocotrienol
